The text below walks through data of ChEMBL document CHEMBL3046400, “Variation in the laboratory susceptibility of turf-infesting white grubs (Coleoptera: Scarabaeidae) to biological, biorational and chemical control products” (2010).

Each structure is given as a SMILES string.

Common to all, as to assay type: functional
Assay [1] relates to Amphimallon majale. The experiment in a line: Insecticidal activity against Amphimallon majalis (European chafer) assessed as mortality after 30 days.
The subject of assay [2] is Maladera castanea. The experiment in a line: Insecticidal activity against Maladera castanea assessed as mortality after 30 days. Also noted: concentration or dose not given beside the values.
Assay [3] relates to Popillia japonica. The experiment in a line: Insecticidal activity against Popillia japonica assessed as mortality after 20 days.
In assay [4] the test system is Amphimallon majale. The experiment in a line: Insecticidal activity against Amphimallon majalis (European chafer) assessed as mortality after 10 days.
In assay [5] the test system is Anomala orientalis. The experiment in a line: Insecticidal activity against Anomala orientalis assessed as mortality after 30 days. Also noted: concentration or dose not given beside the values.
The subject of assay [6] is Maladera castanea. Kind of assay: Insecticidal activity against Maladera castanea assessed as mortality after 20 days. Also noted: concentration or dose not given beside the values.
Assay [7] deals with Popillia japonica. The experiment in a line: Insecticidal activity against Popillia japonica assessed as mortality after 30 days.
Assay [8] relates to Anomala orientalis. Kind of assay: Insecticidal activity against Anomala orientalis assessed as mortality after 10 days. On the set-up: concentration or dose not given beside the values.
For assay [9], the system named is Maladera castanea. Kind of assay: Insecticidal activity against Maladera castanea assessed as mortality after 10 days. On the set-up: concentration or dose not given beside the values.
For assay [10], the system named is Popillia japonica. The experiment in a line: Insecticidal activity against Popillia japonica assessed as mortality after 10 days.
The test system of assay [11] is Anomala orientalis. The experiment in a line: Insecticidal activity against Anomala orientalis assessed as mortality after 20 days. Also noted: concentration or dose not given beside the values.
For assay [12], the system named is Amphimallon majale. The experiment in a line: Insecticidal activity against Amphimallon majalis (European chafer) assessed as mortality after 20 days.

Turning to `CC[C@H]1CCC[C@H](O[C@H]2CC[C@H](N(C)C)[C@@H](C)O2)[C@@H](C)C(=O)C2=C[C@@H]3[C@@H](C=C(C)[C@@H]4C[C@@H](O[C@@H]5O[C@@H](C)[C@H](OC)[C@@H](OC)[C@H]5OC)C[C@@H]34)[C@@H]2CC(=O)O1.CC[C@H]1CCC[C@H](O[C@H]2CC[C@H](N(C)C)[C@@H](C)O2)[C@@H](C)C(=O)C2=C[C@@H]3[C@@H](C=C[C@@H]4C[C@@H](O[C@@H]5O[C@@H](C)[C@H](OC)[C@@H](OC)[C@H]5OC)C[C@@H]34)[C@@H]2CC(=O)O1`, the Activity in the assay on Amphimallon majale [1] is given as 26.5%; with Maladera castanea [2], 79.6%; in the assay on Popillia japonica [3], 33.5%; with Amphimallon majale [4] it was 17.1%; in the assay on Anomala orientalis [5] it was 59%; with Maladera castanea [6], 20.6%. Besides, the Activity is recorded as 58.9% with Popillia japonica [7]; 3.2% in the assay on Anomala orientalis [8]; 6.6% in the assay on Maladera castanea [9]; 7.3% in the assay with Popillia japonica [10]; 31.4% in the assay with Anomala orientalis [11]; 11.8% in the assay with Amphimallon majale [12].
As to `C/C=C(\C)C(=O)O[C@H]1C[C@@H](OC(C)=O)[C@@]2(C(=O)OC)CO[C@H]3[C@@H](O)[C@@](C)([C@]45O[C@@]4(C)[C@@H]4C[C@H]5O[C@@H]5OC=C[C@@]54O)[C@H]4[C@]1(CO[C@]4(O)C(=O)OC)[C@@H]32` [AZADIRACHTIN A], the Activity with Amphimallon majale [1] turned out to be 15.8%; in the assay on Popillia japonica [3], 64.1%; with Amphimallon majale [4], 4%; in the assay on Popillia japonica [7], 87.2%; with Popillia japonica [10], 74.3%; with Amphimallon majale [12] it was 1.1%.
Take `Cc1c(COC(=O)[C@@H]2[C@H](/C=C(\Cl)C(F)(F)F)C2(C)C)cccc1-c1ccccc1` [BIFENTHRIN]: the Activity with Amphimallon majale [1] came out at 0%; in the assay with Popillia japonica [3], 59.3%; in the assay with Amphimallon majale [4], 0%; with Popillia japonica [7], 86.7%; in the assay on Popillia japonica [10] it was 36.9%; with Amphimallon majale [12], 0%.
As for `CCOP(=S)(OCC)Oc1nc(Cl)c(Cl)cc1Cl` [CHLORPYRIFOS], the Activity with Amphimallon majale [1] is 100%; in the assay with Maladera castanea [2], 92.4%; in the assay on Popillia japonica [3], 84.4%; with Amphimallon majale [4], 43%; in the assay on Anomala orientalis [5] it was 98.6%; in the assay with Maladera castanea [6], 89.6%. For the same compound, the Activity in the assay with Popillia japonica [7] is on record as 100%; in the assay with Anomala orientalis [8] it was 87.9%; with Maladera castanea [9] it was 65.5%; with Popillia japonica [10] it was 62.7%; in the assay with Anomala orientalis [11] it was 94.8%; in the assay with Amphimallon majale [12] it was 89%.
On to `CN/C(=N\[N+](=O)[O-])NCc1cnc(Cl)s1` [CLOTHIANIDINE], for which the Activity with Amphimallon majale [1] amounted to 44.3%; in the assay on Maladera castanea [2] it was 100%; in the assay on Popillia japonica [3] it was 22.9%; with Amphimallon majale [4], 19.8%; in the assay on Anomala orientalis [5], 98.6%; with Maladera castanea [6], 75.7%. The Activity was 32.8% with Popillia japonica [7]; 56% with Anomala orientalis [8]; 39.8% in the assay on Maladera castanea [9]; 4% in the assay on Popillia japonica [10]; 89.3% with Anomala orientalis [11]; 22.6% with Amphimallon majale [12].
Consider `CN/C(=N/CC1CCOC1)N[N+](=O)[O-]` (stereo not given) [DINOTEFURAN], for which the Activity in the assay on Amphimallon majale [1] is on record as 8.9%; in the assay with Popillia japonica [3], 69.3%; in the assay on Amphimallon majale [4] it was 0%; in the assay with Popillia japonica [7], 86.2%; in the assay on Popillia japonica [10] it was 54.4%; with Amphimallon majale [12] it was 2.2%.
In the case of `O=[N+]([O-])/N=C1\NCCN1Cc1ccc(Cl)nc1` [IMIDACLOPRID], the Activity in the assay on Amphimallon majale [1] stood at 34.2%; with Maladera castanea [2] it was 38.8%; with Popillia japonica [3], 22.6%; with Amphimallon majale [4] it was 13%; with Anomala orientalis [5] it was 68.3%; in the assay on Maladera castanea [6], 12.2%. For the same compound, the Activity with Popillia japonica [7] is 41.7%; with Anomala orientalis [8], 9.7%; with Maladera castanea [9], 9.2%; in the assay with Popillia japonica [10] it was 9.1%; with Anomala orientalis [11], 30.1%; in the assay on Amphimallon majale [12], 18.3%.
Consider `CN1COCN(Cc2cnc(Cl)s2)/C1=N\[N+](=O)[O-]` [THIAMETHOXAM], for which the Activity worked out at 35.1% with Amphimallon majale [1]; 72.8% in the assay with Maladera castanea [2]; 74.9% in the assay with Popillia japonica [3]; 13.1% in the assay on Amphimallon majale [4]; 78.7% in the assay with Anomala orientalis [5]; 39.1% with Maladera castanea [6]. The Activity in the assay with Popillia japonica [7] came to 91%; in the assay with Anomala orientalis [8], 27%; with Maladera castanea [9], 28.2%; with Popillia japonica [10] it was 48.1%; in the assay with Anomala orientalis [11] it was 57.5%; in the assay on Amphimallon majale [12], 16.4%.
For `COP(=O)(OC)C(O)C(Cl)(Cl)Cl` (stereo not given) [TRICHLORFON], the Activity amounted to 7.4% with Amphimallon majale [1]; 100% in the assay with Maladera castanea [2]; 92.6% in the assay with Popillia japonica [3]; 6% in the assay on Amphimallon majale [4]; 96% in the assay with Anomala orientalis [5]; 97.7% in the assay with Maladera castanea [6]. The Activity in the assay with Popillia japonica [7] is listed as 94.8%; in the assay with Anomala orientalis [8], 95.6%; with Maladera castanea [9], 70.3%; in the assay on Popillia japonica [10], 71.3%; with Anomala orientalis [11], 95.1%; in the assay with Amphimallon majale [12], 2.6%.
